“Also recorded” adds a separate entry of the source.
System: persister cells of Staphylococcus aureus ATCC 6538 [황색포도상구균(Staphylococcus aureus ATCC 6538), 존속성 세균(persister cell)]
Experiment: Persister cell inhibition by beta-caryophyllene co-treated with antibiotics at 10x MIC (CFU count)
Type: cell-based

C=C1CC/C=C(\C)CC[C@@H]2[C@@H]1CC2(C)C [베타-카리오필렌, β-caryophyllene]
amount of persister cells (beta-caryophyllene 1 mM or more, each antibiotic (oxacillin, tobramycin, ciprofloxacin) at 10x MIC, 24 h): 상당량 감소
inhibition of persister cells (beta-caryophyllene 2 mM or more, all antibiotics (oxacillin, tobramycin, ciprofloxacin) at 10x MIC, 24 h, about 80% or more): ≥ 80%
amount of persister cells (beta-caryophyllene 1 to 10 mM): 크게 저하
inhibitory effect on persister cells (beta-caryophyllene 2 to 10 mM, various antibiotics): ≥ 80%
amount of persister cells (beta-caryophyllene together with antibiotic at 10x MIC, 24 h, no beta-caryophyllene concentration stated): 존속성 세균의 양이 감소
inhibition of persister cells (ciprofloxacin, weight ratio beta-caryophyllene:antibiotic about 10:1 to 100:1): ≥ 80%
inhibition of persister cells (oxacillin, weight ratio beta-caryophyllene:antibiotic about 100:1 to 800:1): ≥ 80%
inhibition of persister cells (in words) (persister cells not killed by oxacillin, tobramycin or ciprofloxacin, no beta-caryophyllene concentration stated): 상당량 억제; also recorded: 효과적으로 억제; also recorded: 우수한 억제 활성
inhibition of persister cells (tobramycin, weight ratio beta-caryophyllene:antibiotic about 5:1 to 30:1): ≥ 80%

— KR20230169706A, “베타-카리오필렌을 포함하는 존속성 세균 억제용 조성물” (국민대학교산학협력단, priority 2022, dated 2023)
